Results published in the SangsterLogP compilation.

Assay: method code SF-AS, from DOI: 10.1111/j.2042-7158.1993.tb07096.x, PMID: 7901370
Settings: pH 7.4

Row | Structure (SMILES) | logD
1 | CCNC(=S)NS(=O)(=O)c1cnccc1NC1CCCCCCC1 | 0.96
2 | CCNC(=S)NS(=O)(=O)c1cnccc1NC1CCCCC1 | 0.2
3 | CC(C)NC(=S)NS(=O)(=O)c1cnccc1NC1CCCCCCC1 | 1.3
4 | O=S(=O)(NC(=S)NC1CCCCC1)c1cnccc1NC1CCCCCCC1 | 2.14

The next lines start with the values.

Row | logD | Structure (SMILES)
5 | 1.81 | O=S(=O)(NC(=S)NC1CCCCC1)c1cnccc1NC1CCCCCC1
6 | 1.6 | O=S(=O)(NC(=S)N1CCCCC1)c1cnccc1NC1CCCCCCC1
7 | 0.85 | O=S(=O)(NC(=S)N1CCCCC1)c1cnccc1NC1CCCCC1
8 | 1.25 | O=S(=O)(NC(=S)N1CCCCC1)c1cnccc1NC1CCCCCC1
